In patent US20250281424A1 (New York Blood Center, Inc, priority 2020, published 2025):
pIC50: −log10 of the molar value.

Molecular target: T1, human PF4 (Homo sapiens, UniProt P02776)
T1 construct: PF4 is a 70 amino acid, lysine-rich 7.8 kDa platelet-specific protein; made in house; host or cells: Escherichia coli BL21DE3 pLysS (pT7-7) and/or Drosophila S2 cells
T1 sequence (P02776 32-101): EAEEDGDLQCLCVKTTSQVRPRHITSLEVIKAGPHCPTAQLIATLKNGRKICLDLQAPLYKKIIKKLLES
Assay: Inhibition of PF4 tetramer formation (BS3 cross-linking, SDS-PAGE)
Type: biochemical
Conditions: for inhibition at 5 µM: 5 μM inhibitor; for inhibition at 5 µM / inhibition at 10 µM / inhibition at 1 µM / inhibition at 3 µM: read-out: % inhibition of PF4 tetramer formation at single concentration of inhibitor; for inhibition at 10 µM: 10 μM inhibitor (column A); for inhibition at 1 µM: 1 μM inhibitor; for inhibition at 3 µM: 3 μM inhibitor (column A); for pIC50: read-out: IC50 of PF4 tetramer formation inhibition
How it was run: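 Recombinant human wild-type PF4 (E. coli-expressed, heparin-purified), 10 μg/ml in PBS, incubated with compound 15 min at 37° C or 60 min at room temperature, then cross-linked with 0.2 mM BS3 for 30 min at room temperature. Reducing 12% SDS-PAGE; bands quantified as % tetramer, trimer, dimer, monomer versus compound-free control.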

Compound	inhibition at 1 µM [%]	inhibition at 3 µM [%]	inhibition at 5 µM [%]	inhibition at 10 µM [%]	pIC50
O=C(c1ccc2c(c1)C(=O)C(C(=O)NCCOCC(F)(F)F)C2=O)c1ccc2c(c1)C(=O)C(C(=O)NCCOCC(F)(F)F)C2=O (centres unmarked) [Example 67, 5,5′-carbonylbis(1,3-dioxo-n-(2-(2,2,2-trifluoroethoxy)ethyl)-2,3-dihydro-1h-indene-2-carboxamide)]	–	–	0	20	–
CC(C)(C)OC(=O)N1CSC[C@H]1C(=O)C1C(=O)c2ccc(-c3ccc4c(c3)C(=O)C(C(=O)[C@@H]3CSCN3C(=O)OC(C)(C)C)C4=O)cc2C1=O (stereo partly drawn) [Example 210, tert-butyl (4R)-4-{2′-[(4R)-3-[(tert-butoxy)carbonyl]-1,3-thiazolidine-4-carbonyl]-1,1′,3,3′-tetraoxo-1H,1′H,2H,2′H,3H,3′H-[5,5′-biindene]-2-carbonyl}-1,3-thiazolidine-3-carboxylate]	–	–	62	94	~5.30
O=C1c2ccc(S(=O)(=O)c3ccc4c(c3)C(=O)C(C(=S)NC3CC3)C4=O)cc2C(=O)C1C(=S)NC1CC1 (centres unmarked) [Example 329, N-cyclopropyl-5-{[2-(cyclopropylcarbamothioyl)-1,3-dioxo-2,3-dihydro-1H-inden-5-yl]sulfonyl}-1,3-dioxo-2,3-dihydro-1H-indene-2-carbothioamide]	22	50	–	–	–
CC(=O)OC[C@H]1O[C@@H](OC(C)=O)[C@H](NC(=O)C2C(=O)c3ccc(Oc4ccc5c(c4)C(=O)C(C(=O)N[C@H]4[C@H](OC(C)=O)O[C@H](COC(C)=O)[C@@H](OC(C)=O)[C@@H]4OC(C)=O)C5=O)cc3C2=O)[C@@H](OC(C)=O)[C@@H]1OC(C)=O (stereo partly drawn) [Example 399, [(2R,3S,4R,5R,6S)-3,4,6-tris(acetyloxy)-5-{5-[(1,3-dioxo-2-{[(2S,3R,4R,5S,6R)-2,4,5-tris(acetyloxy)-6-[(acetyloxy)methyl]oxan-3-yl]carbamoyl}-2,3-dihydro-1H-inden-5-yl)oxy]-1,3-dioxo-2,3-dihydro-1H-indene-2-amido}oxan-2-yl]methyl acetate]	21	28	–	–	–
CC(C)(C)OC(=O)N1CCC[C@H]1C(=O)C1C(=O)c2ccc(Oc3ccc4c(c3)C(=O)C(C(=O)[C@@H]3CCCN3C(=O)OC(C)(C)C)C4=O)cc2C1=O (stereo partly drawn) [Example 193, tert-butyl (2S)-2-[5-({2-[(2S)-1-[(tert-butoxy)carbonyl]pyrrolidine-2-carbonyl]-1,3-dioxo-2,3-dihydro-1H-inden-5-yl}oxy)-1,3-dioxo-2,3-dihydro-1H-indene-2-carbonyl]pyrrolidine-1-carboxylate]	–	–	37	40	–
CN(CC(=O)C1C(=O)c2ccc(C#Cc3ccc4c(c3)C(=O)C(C(=O)CN(C)C(=O)OC(C)(C)C)C4=O)cc2C1=O)C(=O)OC(C)(C)C (centres unmarked) [Example 320, tert-butyl N-[2-(5-{2-[2-(2-{[(tert-butoxy)carbonyl](methyl)amino}acetyl)-1,3-dioxo-2,3-dihydro-1H-inden-5-yl]ethynyl}-1,3-dioxo-2,3-dihydro-1H-inden-2-yl)-2-oxoethyl]-N-methylcarbamate]	12	26	–	–	–
O=C1c2ccc(Oc3ccc4c(c3)C(=O)C(C(=O)C3CCCC3)C4=O)cc2C(=O)C1C(=O)C1CCCC1 (centres unmarked) [Example 251, 2-cyclopentanecarbonyl-5-[(2-cyclopentanecarbonyl-1,3-dioxo-2,3-dihydro-1H-inden-5-yl)oxy]-2,3-dihydro-1H-indene-1,3-dione]	32	45	–	–	5.52
CC(C(=O)C1C(=O)c2ccc(C(=O)c3ccc4c(c3)C(=O)C(C(=O)C(C)c3ccc(F)cc3)C4=O)cc2C1=O)c1ccc(F)cc1 (centres unmarked) [Example 242, 2-[2-(4-fluorophenyl)propanoyl]-5-{2-[2-(4-fluorophenyl)propanoyl]-1,3-dioxo-2,3-dihydro-1H-indene-5-carbonyl}-2,3-dihydro-1H-indene-1,3-dione]	13	31	–	–	–
O=C(CC1CCCC1)C1C(=O)c2ccc(S(=O)(=O)c3ccc4c(c3)C(=O)C(C(=O)CC3CCCC3)C4=O)cc2C1=O (centres unmarked) [Example 142, 2-(2-cyclopentylacetyl)-5-{[2-(2-cyclopentylacetyl)-1,3-dioxo-2,3-dihydro-1H-inden-5-yl]sulfonyl}-2,3-dihydro-1H-indene-1,3-dione]	–	–	95	94	4.74
CC(C)(C)OC(=O)N[C@@H](C(=O)C1C(=O)c2ccc(S(=O)(=O)c3ccc4c(c3)C(=O)C(C(=O)[C@H](NC(=O)OC(C)(C)C)c3ccccc3)C4=O)cc2C1=O)c1ccccc1 (some centres unmarked) [Example 182]	–	–	74	88	5.24
O=C(c1ccc2c(c1)C(=O)C(C(=O)C1CCOC1)C2=O)c1ccc2c(c1)C(=O)C(C(=O)C1CCOC1)C2=O (centres unmarked) [Example 146, 5-[1,3-dioxo-2-(oxolane-3-carbonyl)-2,3-dihydro-1H-indene-5-carbonyl]-2-(oxolane-3-carbonyl)-2,3-dihydro-1H-indene-1,3-dione]	–	–	44	40	–
CC(=O)C1C(=O)c2ccc(S(=O)(=O)c3ccc4c(c3)C(=O)C(C(C)=O)C4=O)cc2C1=O (centres unmarked) [Example 2, 5,5′-sulfonylbis(2-acetyl-1h-indene-1,3(2h)-dione)]	–	–	–	–	4.74
CSCCCC(=O)C1C(=O)c2ccc(Oc3ccc4c(c3)C(=O)C(C(=O)CCCSC)C4=O)cc2C1=O (centres unmarked) [Example 283, 2-[4-(methylsulfanyl)butanoyl]-5-({2-[4-(methylsulfanyl)butanoyl]-1,3-dioxo-2,3-dihydro-1H-inden-5-yl}oxy)-2,3-dihydro-1H-indene-1,3-dione]	–	–	–	86	5.00
CC(C)(C)OC(=O)N1CCCC[C@H]1C(=O)C1C(=O)c2ccc(C(=O)c3ccc4c(c3)C(=O)C(C(=O)[C@@H]3CCCCN3C(=O)OC(C)(C)C)C4=O)cc2C1=O (stereo partly drawn) [Example 127, tert-butyl (2S)-2-(5-{2-[(2S)-1-[(tert-butoxy)carbonyl]piperidine-2-carbonyl]-1,3-dioxo-2,3-dihydro-1H-indene-5-carbonyl}-1,3-dioxo-2,3-dihydro-1H-indene-2-carbonyl)piperidine-1-carboxylate]	–	–	–	–	6.00
O=C(c1ccc2c(c1)C(=O)C(C(=O)NCc1ccccc1)C2=O)c1ccc2c(c1)C(=O)C(C(=O)NCc1ccccc1)C2=O (centres unmarked) [Example 25, 5,5′-carbonylbis(1,3-dioxo-indan-2-carboxylic acid ((phenyl)methyl)-amide)]	–	–	63	70	5.20
CCCCNC(=O)C1C(=O)c2ccc(C(=O)c3ccc4c(c3)C(=O)C(C(=O)NCCCC)C4=O)cc2C1=O (centres unmarked) [Example 77, N-butyl-5-[2-(butylcarbamoyl)-1,3-dioxo-2,3-dihydro-1H-indene-5-carbonyl]-1,3-dioxo-2,3-dihydro-1H-indene-2-carboxamide]	–	–	–	–	5.64
CC(C)(C)OC(=O)NCC(=O)C1C(=O)c2ccc(C#Cc3ccc4c(c3)C(=O)C(C(=O)CNC(=O)OC(C)(C)C)C4=O)cc2C1=O (centres unmarked) [Example 319, tert-butyl N-[2-(5-{2-[2-(2-{[(tert-butoxy)carbonyl]amino}acetyl)-1,3-dioxo-2,3-dihydro-1H-inden-5-yl]ethynyl}-1,3-dioxo-2,3-dihydro-1H-inden-2-yl)-2-oxoethyl]carbamate]	13	22	–	–	–

Continued, in another order:

inhibition at 1 µM [%]	inhibition at 3 µM [%]	Compound	inhibition at 5 µM [%]	inhibition at 10 µM [%]	pIC50
69	100	COCCOCCNC(=O)C1C(=O)c2ccc(Oc3ccc4c(c3)C(=O)C(C(=O)NCCOCCOC)C4=O)cc2C1=O (centres unmarked) [Example 291, 5-({2-[hydroxy({[2-(2-methoxyethoxy)ethyl]amino})methyl]-1,3-dioxo-2,3-dihydro-1H-inden-5-yl}oxy)-N-[2-(2-methoxyethoxy)ethyl]-1,3-dioxo-2,3-dihydro-1H-indene-2-carboxamide]	–	–	5.89
15	36	C[C@H](NC(=O)C1C(=O)c2ccc(S(=O)(=O)c3ccc4c(c3)C(=O)C(C(=O)N[C@@H](C)C(=O)O)C4=O)cc2C1=O)C(=O)O (stereo partly drawn) [Example 318, (2S)-2-({5-[(2-{[(1S)-1-carboxyethyl]carbamoyl}-1,3-dioxo-2,3-dihydro-1H-inden-5-yl)sulfonyl]-1,3-dioxo-2,3-dihydro-1H-inden-2-yl}formamido) propanoic acid]	–	–	–
18	34	CC(=O)NCCCC(=O)C1C(=O)c2ccc(Oc3ccc4c(c3)C(=O)C(C(=O)CCCNC(C)=O)C4=O)cc2C1=O (centres unmarked) [Example 265, N-[4-(5-{[2-(4-acetamidobutanoyl)-1,3-dioxo-2,3-dihydro-1H-inden-5-yl]oxy}-1,3-dioxo-2,3-dihydro-1H-inden-2-yl)-4-oxobutyl]acetamide]	–	–	–
27	40	CCNC(=O)C1C(=O)c2ccc(Oc3ccc4c(c3)C(=O)C(C(=O)NCC)C4=O)cc2C1=O (centres unmarked) [Example 334, N-ethyl-5-{[2-(ethylcarbamoyl)-1,3-dioxo-2,3-dihydro-1H-inden-5-yl]oxy}-1,3-dioxo-2,3-dihydro-1H-indene-2-carboxamide]	–	–	–
14	17	COCCOCC(=O)C1C(=O)c2ccc(Oc3ccc4c(c3)C(=O)C(C(=O)COCCOC)C4=O)cc2C1=O (centres unmarked) [Example 396, 2-[2-(2-methoxyethoxy)acetyl]-5-({2-[2-(2-methoxyethoxy)acetyl]-1,3-dioxo-2,3-dihydro-1H-inden-5-yl}oxy)-2,3-dihydro-1H-indene-1,3-dione]	–	–	–
